The source made the active and inactive calls. The rule behind the calls is not given here.
Tests used:
[1] = target: COP9 signalosome complex subunit 5 (Homo sapiens) (UniProt Q92905); test: Binding affinity to CSN5 in HEK293T cell lysate by Western blot analysis; type: subcellular
[2] = system: Lewis lung carcinoma cell line; test: Antitumor T-cell immune response in Lewis lung carcinoma cells xenografted in C57BL/6 mouse model assessed as increase in CD3+ CD8+ infiltration in CD45+ T cells in tumor at 10 mg/kg, ip administered daily for 10 days by flow cytometry; type: functional, organism-based; conditions: time 10.0 day
[3] = system: Lewis lung carcinoma; test: Effect on PD-L1 mRNA level in Lewis lung carcinoma cells at 10 uM incubated for 24 hrs by qRT-PCR analysis; type: functional, cell-based; conditions: Mus musculus
[4] = system: Lewis lung carcinoma cell line; test: Anticancer activity against Lewis lung carcinoma cells measured after 3 days by MTT assay; type: functional, cell-based; conditions: Mus musculus, 72 h
[5] = system: NCI-H460; test: Antiproliferative activity against human NCI-H460 cells at 10 uM measured after 4 days by MTT assay; type: functional, cell-based; conditions: time 4.0 day
[6] = Toxicity in C57BL/6 mouse model xenografted with […] cells assessed as change in BUN level at 10 mg/kg, ip administered daily for 10 days; type: organism-based, Blood; conditions: in vivo, 240 h, time 10 day
[7] = Toxicity in C57BL/6 mouse model xenografted with […] cells assessed as body weight loss at 10 mg/kg, ip administered daily for 10 days; type: organism-based; conditions: in vivo, 240 h, time 10 day
[8] = system: Lewis lung carcinoma cell line; test: Anticancer activity against Lewis lung carcinoma cells xenografted in C57BL/6 mouse model assessed as decrease in Ki-67 level at 10 mg/kg, ip administered daily for 10 days by IHC analysis; type: functional, organism-based; conditions: time 10.0 day
[9] = target: COP9 signalosome complex subunit 5 (Homo sapiens) (UniProt Q92905); test: Induction of PD-L1 degradation in human NCI-H460 cells at 10 uM pretreated with compound followed by CHX incubation upto 8 hrs by Western blot analysis; type: cell-based
[10] = Antiproliferative activity against human HTori-3 cells at 10 uM incubated for 4 days; type: toxicity, cell-based; conditions: htori-3, 96 h, time 4 day
[11] = system: Lewis lung carcinoma cell line; test: Antitumor T-cell immune response in Lewis lung carcinoma cells xenografted in C57BL/6 mouse model assessed as increase in TNF-alpha level in tumor at 10 mg/kg, ip administered daily for 10 days by ELISA; type: functional, organism-based; conditions: time 10.0 day
[12] = system: NCI-H460; test: Effect on PD-L1 mRNA level in human NCI-H460 cells at 10 uM incubated for 24 hrs by qRT-PCR analysis; type: functional, cell-based
[13] = target: COP9 signalosome complex subunit 5 (Homo sapiens) (UniProt Q92905); test: Induction of PD-L1 degradation in human PC-9 cells at 10 uM by Western blot analysis; type: cell-based; conditions: time <= 36.0 hrs
[14] = Toxicity in C57BL/6 mouse model xenografted with […] cells assessed as obvious damage in spleen at 10 mg/kg, ip administered daily for 10 days by H and E staining based analysis; type: organism-based; conditions: in vivo, 240 h, time 10 day
[15] = system: Lewis lung carcinoma cell line; test: Antitumor T-cell immune response in Lewis lung carcinoma cells xenografted in C57BL/6 mouse model assessed as increase in IFN-gamma level in tumor at 10 mg/kg, ip administered daily for 10 days by ELISA; type: functional, organism-based; conditions: time 10.0 day
[16] = system: Lewis lung carcinoma cell line; test: Antitumor T-cell immune response in Lewis lung carcinoma cells xenografted in C57BL/6 mouse model assessed as increase in ratio of CD8+ to CD4+ T cells in tumor at 5 mg/kg, ip administered daily for 8 days by flow cytometry; type: functional, organism-based; conditions: time 8.0 day
[17] = Toxicity in C57BL/6 mouse model xenografted with […] cells assessed as obvious damage in liver at 10 mg/kg, ip administered daily for 10 days by H and E staining based analysis; type: organism-based; conditions: in vivo, 240 h, time 10 day
[18] = system: Lewis lung carcinoma cell line; test: Antitumor T-cell immune response in Lewis lung carcinoma cells xenografted in C57BL/6 mouse model assessed as increase in ratio of CD8+ to CD4+ T cells in tumor at 10 mg/kg, ip administered daily for 10 days by flow cytometry; type: functional, organism-based; conditions: time 10.0 day
[19] = target: COP9 signalosome complex subunit 5 (Homo sapiens) (UniProt Q92905); test: Binding affinity to CSN5 in NCI-H460 cell lysate by Western blot analysis; type: subcellular
[20] = target: COP9 signalosome complex subunit 5 (Homo sapiens) (UniProt Q92905); test: Induction of PD-L1 degradation in human NCI-H460 cells overexpressing CSN5 by Western blot analysis; type: cell-based
[21] = system: PC-9; test: Effect on PD-L1 mRNA level in human PC-9 cells at 10 uM incubated for 24 hrs by qRT-PCR analysis; type: functional, cell-based
[22] = system: Lewis lung carcinoma cell line; test: Antitumor activity against Lewis lung carcinoma cells xenografted in C57BL/6 mouse model at 5 mg/kg, ip administered daily for 8 days relative to control; type: functional; conditions: 192 h, time 8 day, read-out: TGI
[23] = target: COP9 signalosome complex subunit 5 (Homo sapiens) (UniProt Q92905); test: Induction of IFN-gamma-induced PD-L1 degradation in human HCC827 cells at 10 uM incubated for 24 hrs by Western blot analysis; type: cell-based
[24] = system: HEK-293T; test: Antiproliferative activity against HEK293T cells at 10 uM incubated for 4 days; type: toxicity, cell-based; conditions: human, 96 h, time 4 day
[25] = system: Lewis lung carcinoma cell line; test: Antitumor T-cell immune response in Lewis lung carcinoma cells xenografted in C57BL/6 mouse model assessed as decrease in CD3+ CD4+ population in CD45+ T cells in tumor at 10 mg/kg, ip administered daily for 10 days by flow cytometry; type: functional, organism-based; conditions: time 10.0 day
[26] = Toxicity in C57BL/6 mouse model xenografted with […] cells assessed as change in ALT level at 10 mg/kg, ip administered daily for 10 days; type: organism-based, Blood; conditions: in vivo, 240 h, time 10 day
[27] = Toxicity in C57BL/6 mouse model xenografted with […] cells assessed as obvious damage in kidney at 10 mg/kg, ip administered daily for 10 days by H and E staining based analysis; type: organism-based; conditions: in vivo, 240 h, time 10 day
[28] = system: Lewis lung carcinoma cell line; test: Anticancer activity against Lewis lung carcinoma cells xenografted in C57BL/6 mouse model at 10 mg/kg, ip administered daily for 10 days relative to control; type: functional; conditions: 240 h, time 10 day, read-out: TGI
[29] = system: Mus musculus; test: In vivo induction of PD-L1 degradation in […] lung carcinoma cells xenografted in C57BL/6 mouse model at 10 mg/kg, ip administered daily for 10 days by IHC analysis; type: functional, organism-based; conditions: time 10.0 day
[30] = Toxicity in C57BL/6 mouse model xenografted with […] cells assessed as obvious damage in lung at 10 mg/kg, ip administered daily for 10 days by H and E staining based analysis; type: organism-based; conditions: in vivo, 240 h, time 10 day
[31] = target: COP9 signalosome complex subunit 5 (Homo sapiens) (UniProt Q92905); test: Induction of PD-L1 degradation in […] cells at 10 uM by Western blot analysis; type: cell-based; conditions: Lewis lung carcinoma cell line, time <= 36.0 hrs
[32] = system: A549; test: Effect on IFN-gamma-induced PD-L1 mRNA expression in human A549 cells at 10 uM by qRT-PCR analysis; type: functional, cell-based
[33] = target: COP9 signalosome complex subunit 5 (Homo sapiens) (UniProt Q92905); test: Induction of PD-L1 degradation in human NCI-H460 cells upto 20 uM in presence of MG132 by Western blot analysis; type: cell-based
[34] = target: COP9 signalosome complex subunit 5 (Homo sapiens) (UniProt Q92905); test: Induction of PD-L1 degradation in human NCI-H460 cells upto 40 uM in presence of chloroquine by Western blot analysis; type: cell-based
[35] = system: PC-9; test: Antiproliferative activity against human PC-9 cells at 10 uM measured after 4 days by MTT assay; type: functional, cell-based; conditions: time 4.0 day
[36] = system: NCI-H1299; test: Effect on IFN-gamma-induced PD-L1 mRNA expression in human NCI-H1299 cells at 10 uM by qRT-PCR analysis; type: functional, cell-based
[37] = Toxicity in C57BL/6 mouse model xenografted with […] cells assessed as change in serum creatinine level at 10 mg/kg, ip administered daily for 10 days; type: organism-based; conditions: in vivo, 240 h, time 10 day

COP9 signalosome complex subunit 5 (Homo sapiens), sequence (Q92905 2-334 limits assumed, one chain of several): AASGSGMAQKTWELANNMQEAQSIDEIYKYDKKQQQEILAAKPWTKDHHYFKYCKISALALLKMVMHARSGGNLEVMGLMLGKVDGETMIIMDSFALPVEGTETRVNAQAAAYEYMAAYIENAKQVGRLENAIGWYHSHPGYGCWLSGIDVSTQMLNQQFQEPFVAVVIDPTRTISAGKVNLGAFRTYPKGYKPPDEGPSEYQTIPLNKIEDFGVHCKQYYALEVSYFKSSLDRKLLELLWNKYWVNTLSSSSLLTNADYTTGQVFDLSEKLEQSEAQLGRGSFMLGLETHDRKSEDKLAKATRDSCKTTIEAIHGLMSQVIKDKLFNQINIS

Activity [1]: Active
IC50 [4]: 122 µM
Activity [9]: inactive
Activity [13]: Time-dependent-effect
Activity [19]: Active
Activity [20]: inactive
Activity [23]: Active
Activity [31]: Time-dependent-effect
Activity [33]: inactive
Activity [34]: Active
SMILES: COc1cc2c(cc1OC)-c1cc3ccc(OC)c(OCCN)c3c[n+]1CC2.[Cl-]
Activity [2]: Active
Activity [3]: inactive
Activity [5]: inactive
Activity [6]: Non-toxic
Activity [7]: Non-toxic
Activity [8]: Active
Activity [10]: Non-toxic
Activity [11]: Active
Activity [12]: inactive
Activity [14]: Non-toxic
Activity [15]: Active
Activity [16]: Active
Activity [17]: Non-toxic
Activity [18]: Active; Highest Enhancement Of Ratio Observed
Activity [21]: inactive
inhibition in vivo at 5 mg/kg [22]: 66%
Activity [24]: Non-toxic
Activity [25]: Active
Activity [26]: Non-toxic
Activity [27]: Non-toxic
inhibition in vivo at 10 mg/kg [28]: 71%
Activity [29]: Active
Activity [30]: Non-toxic
Activity [32]: inactive
Activity [35]: inactive
Activity [36]: inactive
Activity [37]: Non-toxic

Source: ChEMBL document CHEMBL6092191, “Advancing Cancer Immunotherapy through Engineering New PD-L1 Degraders: A Comprehensive Study from Small Molecules to PD-L1-Specific Peptide-Drug Conjugates” (J Med Chem, 2024)
